Assay results as given in the supplement of paper PMC10307832.

Key:
Test in all cases: relative viability (nuclei count vs DMSO), 5 days (fraction); higher = more cells survive
[1] = compound: COC1=C(C=C(C=C1)C2=CC3=NC=CN3C(=N2)NC4=C(C=CC=N4)C(=O)N)OC [BAY61-3606] + C[C@@H](Oc1cc(-c2cnn(C3CCNCC3)c2)cnc1N)c1c(Cl)ccc(F)c1Cl [Crizotinib] (partner 1 µM)
Summary of the method: (§1)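 Relative viability was taken as the ratio of nuclei in treated wells to nuclei in vehicle wells. Lung cancer cell lines in 1536-well plates received compounds by pin tool one day after seeding, either one drug alone or a fixed anchor-drug dose plus five library-drug doses (not always all listed) in √10 steps. Nuclei were counted on 4× images after 5 days of treatment, and values are medians of duplicate plates.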

[2] = compound: COC1=C(C=C(C=C1)C2=CC3=NC=CN3C(=N2)NC4=C(C=CC=N4)C(=O)N)OC [BAY61-3606] + C[C@]1(O)C[C@@H](c2nc(-c3ccc4ccc(-c5ccccc5)nc4c3)c3c(N)nccn32)C1 [Linsitinib] (partner 1 µM)
Summary of the method: as §1

[3] = compound: COc1cccc2c1C(=O)c1c(O)c3c(c(O)c1C2=O)C[C@@](O)(C(=O)CO)C[C@@H]3O[C@H]1C[C@H](N)[C@H](O)[C@H](C)O1 [Doxorubicin] + CC(=O)c1c(C)c2cnc(Nc3ccc(N4CCNCC4)cn3)nc2n(C2CCCC2)c1=O [Palbociclib] (partner 0.5 µM)
Summary of the method: as §1

[4] = compound: COc1cccc2c1C(=O)c1c(O)c3c(c(O)c1C2=O)C[C@@](O)(C(=O)CO)C[C@@H]3O[C@H]1C[C@H](N)[C@H](O)[C@H](C)O1 [Doxorubicin] + Nc1ncn([C@H]2C[C@H](O)[C@@H](CO)O2)c(=O)n1 [Decitabine] (partner 2 µM)
Summary of the method: as §1

Cell Line	relative viability ([1]; first compound 0.02 µM)	relative viability ([1]; first compound 0.06325 µM)	relative viability ([1]; first compound 0.2 µM)	relative viability ([1]; first compound 0.6325 µM)	relative viability ([1]; first compound 2 µM)	relative viability ([2]; first compound 0.02 µM)	relative viability ([2]; first compound 0.06325 µM)	relative viability ([2]; first compound 0.2 µM)	relative viability ([2]; first compound 0.6325 µM)	relative viability ([2]; first compound 2 µM)	relative viability ([3]; first compound 0.001 µM)	relative viability ([3]; first compound 0.003162 µM)	relative viability ([3]; first compound 0.01 µM)	relative viability ([3]; first compound 0.03162 µM)	relative viability ([3]; first compound 0.1 µM)	relative viability ([4]; first compound 0.001 µM)	relative viability ([4]; first compound 0.003162 µM)	relative viability ([4]; first compound 0.01 µM)	relative viability ([4]; first compound 0.03162 µM)	relative viability ([4]; first compound 0.1 µM)
201T	1.1	0.996	1.01	1.02	1.03	1.05	0.975	0.972	1.01	1.07	0.351	0.321	0.345	0.349	0.354	0.899	0.879	0.824	0.835	0.804
A549	0.758	0.756	0.712	0.713	0.406	0.765	0.63	0.642	0.77	0.588	–	–	–	–	–	0.245	0.266	0.257	0.179	0.235
A-427	0.85	0.767	0.878	0.97	0.845	1.14	1.07	1.06	1.06	1.15	0.518	0.526	0.517	0.449	0.363	0.585	0.625	0.553	0.456	0.4
ABC-1	0.999	0.978	0.992	1.02	0.821	0.774	0.948	0.879	0.827	0.631	0.651	0.712	0.543	0.471	0.368	0.993	1.18	0.955	0.708	0.726
BEN	0.88	0.748	1.1	1.06	0.84	1.04	0.805	1.06	1.01	0.793	0.454	0.458	0.46	0.441	0.465	0.757	0.714	0.712	0.62	0.607
CAL-12T	0.619	0.537	0.493	0.364	0.205	0.903	0.755	0.818	0.85	0.388	0.41	0.527	0.486	0.279	0.174	–	–	–	–	–
COR-L23	0.697	0.67	0.527	0.667	0.509	1.02	1.07	0.957	0.903	0.641	0.327	0.274	0.236	0.181	0.106	0.427	0.452	0.391	0.253	0.157
COR-L 105	0.762	0.569	0.674	0.541	0.421	1.11	1.02	0.926	0.812	0.616	0.436	0.387	0.367	0.37	0.327	0.626	0.734	0.506	0.53	0.384
Calu-6	0.765	0.77	0.67	0.732	0.352	0.977	1.02	0.893	0.901	0.759	–	–	–	–	–	–	–	–	–	–
ChaGo-K-1	1.09	0.832	1.06	1.14	1.05	–	–	–	–	–	0.962	0.912	0.911	0.939	0.974	0.524	0.557	0.482	0.473	0.527
EBC-1	0.2	0.195	0.23	0.16	0.224	1.02	0.91	0.835	0.949	0.628	–	–	–	–	–	–	–	–	–	–
EKVX	0.972	0.868	0.976	1.15	0.806	1.12	0.981	0.99	0.946	0.935	0.794	0.312	0.342	0.31	0.374	0.389	0.34	0.307	0.296	0.375
EMC-BAC-2	0.775	0.696	0.755	0.817	0.573	0.837	0.862	0.852	0.876	0.833	0.524	0.465	0.442	0.383	0.403	0.983	0.781	0.614	0.321	0.338
EPLC-272H	1.03	0.762	0.89	0.87	0.811	1.18	1.06	1.07	1.19	1.26	0.279	0.28	0.301	0.328	0.29	0.382	0.324	0.32	0.387	0.423
H3255	0.922	0.854	0.902	1.05	0.752	0.989	0.987	1.07	1.18	0.854	0.306	0.315	0.306	0.348	0.263	–	0.533	0.604	0.568	0.583
HARA	1.08	1.08	1.06	1.07	0.892	1.03	1.01	0.972	1.06	0.931	0.234	0.256	0.259	0.236	0.263	0.796	0.425	0.519	0.507	0.407
HCC-15	0.835	0.834	0.806	0.836	0.779	0.964	0.988	0.814	0.876	0.725	0.743	0.733	0.522	0.681	0.488	0.628	0.704	0.571	0.408	0.211
HCC-44	0.749	0.829	0.777	0.907	0.823	0.636	0.695	0.722	0.762	0.751	0.99	0.981	1	1.03	0.933	1.01	1.01	0.902	0.964	0.977
HCC-78	0.385	0.308	0.317	0.343	0.367	0.742	0.456	0.598	0.535	0.459	0.46	0.526	0.449	0.488	0.453	0.749	0.697	0.717	0.668	0.533
HCC-366	0.506	0.495	0.566	0.461	0.162	0.831	0.613	0.689	0.694	0.366	0.352	0.456	0.361	0.275	0.361	0.334	0.35	0.281	0.309	0.334

Cell Line	relative viability ([1]; first compound 0.02 µM)	relative viability ([1]; first compound 0.06325 µM)	relative viability ([1]; first compound 0.2 µM)	relative viability ([1]; first compound 0.6325 µM)	relative viability ([1]; first compound 2 µM)	relative viability ([2]; first compound 0.02 µM)	relative viability ([2]; first compound 0.06325 µM)	relative viability ([2]; first compound 0.2 µM)	relative viability ([2]; first compound 0.6325 µM)	relative viability ([2]; first compound 2 µM)	relative viability ([3]; first compound 0.001 µM)	relative viability ([3]; first compound 0.003162 µM)	relative viability ([3]; first compound 0.01 µM)	relative viability ([3]; first compound 0.03162 µM)	relative viability ([3]; first compound 0.1 µM)	relative viability ([4]; first compound 0.001 µM)	relative viability ([4]; first compound 0.003162 µM)	relative viability ([4]; first compound 0.01 µM)	relative viability ([4]; first compound 0.03162 µM)	relative viability ([4]; first compound 0.1 µM)
HCC-827	0.938	0.952	0.942	0.974	0.965	0.971	0.959	0.973	1.05	0.966	0.465	0.458	0.484	0.465	0.593	0.339	0.328	0.333	0.264	0.262
HOP-62	0.928	–	0.823	1.06	0.716	1.11	–	0.961	1.11	0.713	0.421	0.444	0.494	0.434	0.486	0.217	0.249	0.187	0.228	0.206
IA-LM	1.04	0.865	–	0.987	0.67	0.52	0.573	0.559	0.662	0.354	–	–	–	–	–	–	–	–	–	–
LC-2-ad	–	0.384	0.447	0.406	0.348	0.971	0.922	0.897	0.827	0.562	0.475	0.476	0.496	0.517	0.495	0.764	0.842	0.831	0.92	0.759
LCLC-97TM1	0.262	–	0.341	0.395	0.262	0.182	–	0.187	0.18	0.175	0.229	0.205	0.222	0.199	0.238	0.229	0.233	0.178	0.176	0.242
LCLC-103H	1.07	0.997	1.02	1.08	1.02	1.07	1.13	1.12	1.37	1.13	0.468	0.508	0.5	0.457	0.41	0.751	0.747	0.75	0.789	0.73
NCI-H522	–	–	–	–	–	–	–	–	–	–	0.986	1.19	1.08	0.89	1.04	0.647	0.704	0.634	0.683	0.601
NCI-H596	0.969	1.01	1.08	1.19	0.931	1.16	0.962	1	1.02	0.954	–	–	–	–	–	1.97	1.09	1	0.86	1.08
NCI-H1299	0.98	0.961	1.01	0.992	0.93	0.977	1.03	0.994	1	0.89	–	–	–	–	–	–	–	–	–	–
NCI-H1395	–	–	–	–	–	1.39	0.989	1.1	1.1	0.888	0.579	0.618	0.663	0.671	0.575	0.724	0.666	0.634	0.614	0.651
NCI-H1563	0.906	0.868	0.882	0.948	0.758	1.37	1.42	1.2	1.12	1.03	–	–	–	–	–	–	–	–	–	–
NCI-H1648	–	–	–	–	–	–	–	–	–	–	0.283	0.294	0.286	0.245	0.258	0.604	0.451	0.599	0.421	0.495
NCI-H1650	0.936	1.08	0.866	1	0.385	–	–	–	–	–	0.237	0.317	0.282	0.173	0.145	0.396	0.314	0.361	0.245	0.135
NCI-H1703	0.76	0.449	0.661	0.353	0.343	0.596	0.389	0.842	0.808	0.341	–	–	–	–	–	–	–	–	–	–
NCI-H1793	–	–	–	–	–	0.797	0.892	1	1.27	0.89	–	0.303	0.304	0.258	0.324	–	0.482	0.501	0.403	0.456
NCI-H2170	1.27	1.27	1.19	1.16	0.87	–	–	–	–	–	0.409	0.389	0.386	0.313	0.447	0.498	0.472	0.435	0.396	0.491
NCI-H2228	0.483	0.405	0.526	0.378	0.478	0.663	0.552	0.668	0.714	0.496	0.508	0.914	0.555	0.301	0.184	–	–	–	–	–
NCI-H2342	–	–	–	–	–	–	–	–	–	–	0.547	0.557	0.548	0.496	0.496	0.703	0.778	0.786	0.63	0.748
SW 900	–	–	–	–	–	–	–	–	–	–	–	0.604	0.543	0.452	0.519	–	0.461	0.449	0.403	0.449
